These results are taken from patent US7858295B2, “Methods for prolonging survival of platelets using UDP-galactose” (Velico Medical, Inc., priority 2002, dated 2010).

One assay concerns THP-1 cells. The assay can be described thus: In vitro phagocytic assay: ingestion of CM-Orange-labeled chilled or room temperature human platelets by THP-1 phagocytes (flow cytometry). In kind it is cell-based. Particulars: for % inhibition phagocytosis / inhibitory effect on chilled platelet phagocytosis (in words): chilled platelets; for inhibitory effect on chilled platelet phagocytosis (in words): various concentrations; for inhibitory effect on RT platelet phagocytosis (in words): room temperature platelets. As to the method: CR3 expression was monitored by flow cytometry using a PE-conjugated anti-human CD11b/Mac-1 mAb. Undifferentiated or differentiated THP-1 cells (2×10^6/ml) were plated onto 24-well plates and allowed to adhere for 45 minutes at 37° C. The adherent undifferentiated or differentiated macrophages were activated by the addition of 15 ng/ml PMA for 15 min. CM-range-labeled, chilled or room temperature platelets (10^7/well), previously subjected to different treatments were added to the undifferentiated or differentiated phagocytes in Ca^2+- and Mg^2+-containing HBSS and incubated for 30 min at 37° C. Following the incubation period, the phagocyte monolayer was washed with HBSS for 3 times, and adherent platelets were removed by treatment with 0.05% trypsin/0.53 mM EDTA in HBSS at 37° C. for 5 min followed by 5 mM EDTA at 4° C. to detach the macrophages for flow cytometric analysis of adhesion or ingestion of platelets (Brown et al., 2000). […] CM-Orange-labeled platelets incubated with macrophages were resolved from the phagocytes according to their forward and side scatter properties. The macrophages were gated, 10,000 events acquired for each sample, and data analyzed with CELLQuest software (Becton Dickenson).
To analyze the effects of monosaccharides on platelet phagocytosis, phagocytes (differentiated monocytic cell line THP-1) were incubated in monosaccharide solutions at various concentrations, and the chilled or room temperature platelets were added. Values in the Figures are means±SD of 3-5 experiments comparing percentages of orange-positive monocytes containing ingested platelets incubated with RT or chilled platelets).
On the technique in general: Flow cytometry measures light scatter and fluorescence of single cells or particles in a stream.

For another assay, the system named is human platelets. The assay can be described thus: FITC-lectin (WGA, S-WGA, RCA I) binding to chilled or room temperature platelets by flow cytometry. Particulars: alone. It counts as cell-based.

For the compound `O=C[C@H](O)[C@@H](O)[C@@H](O)[C@H](O)CO` [D-(+)-galactose], in the assay with THP-1 cells (phagocytes incubated with 100 mM monosaccharide), the “% inhibition phagocytosis” value is reported as “did not significantly inhibit”.

In the case of `O=C[C@@H](O)[C@@H](O)[C@H](O)[C@H](O)CO` [D-(+)-mannose], in the assay with THP-1 cells, the “inhibitory effect on chilled platelet phagocytosis (in words)” value is given as “no inhibitory effect” and the “inhibitory effect on RT platelet phagocytosis (in words)” value is reported as “no inhibitory effect”.

In the case of `CC(=O)N[C@H]1C(O)O[C@H](CO)[C@@H](O)[C@@H]1O` (stereo partly drawn) [GlcNac, N-acetyl-D-glucosamine], in the assay on THP-1 cells, the “inhibitory effect on chilled platelet phagocytosis (in words)” value is given as “significantly inhibited”.

As to `CO[C@H]1O[C@H](CO)[C@@H](O)[C@H](O)[C@H]1O` [Methyl-α-D-glucopyranoside], the “inhibitory effect on chilled platelet phagocytosis (in words)” value in the assay on THP-1 cells was “did not have an inhibitory effect”.

Take `CO[C@H]1O[C@H](CO)[C@@H](O)[C@H](O)[C@@H]1O` [Methyl-α-D-mannopyranoside]: in the assay with THP-1 cells, the “inhibitory effect on chilled platelet phagocytosis (in words)” value was “no inhibitory effect” and the “inhibitory effect on RT platelet phagocytosis (in words)” value was “no inhibitory effect”.

Take `COC1OC(CO)C(O)C(O)C1O` [Methyl-β-D-gludopyranoside]: in the assay with THP-1 cells, the “inhibitory effect on chilled platelet phagocytosis (in words)” value is “dose-dependent manner”.

`CO[C@@H]1O[C@H](CO)[C@@H](O)[C@H](O)[C@@H]1O` [Methyl-β-D-mannopyranoside]: in the assay on THP-1 cells, the “inhibitory effect on chilled platelet phagocytosis (in words)” value is recorded as “no inhibitory effect” and the “inhibitory effect on RT platelet phagocytosis (in words)” value is “no inhibitory effect”.

Regarding `O=c1ccn([C@@H]2O[C@H](COP(=O)(O)OP(=O)(O)O)[C@@H](O)[C@H]2O)c(=O)[nH]1` [UDP], the “effect on S-WGA or RCA I binding to chilled or room temperature human platelets” value in the assay on human platelets is listed as “no effect”.

On to `CC(=O)N[C@@H]1[C@@H](O)[C@H](O)[C@@H](CO)O[C@H]1O` [β-GlcNac], for which, in the assay with THP-1 cells (0.01 mM (10 μM) monosaccharide, listed as β-anomer of GlcNAc), the “% inhibition phagocytosis” value came to 80%. The “inhibitory effect on chilled platelet phagocytosis (in words)” value in the assay on THP-1 cells was “strongly inhibited”.
